Laboratory results from patent publication US11166460B2, “α-amino acrylate microbicide, and preparation method therefor and uses thereof” (priority 2017, dated 2021).
Values after ≈ are worked out from the molar mass of the structure shown. Like-named read-outs stand apart in the source and are kept apart here.

How the values were obtained:
[1] = system: tobacco mosaic virus (TMV); test: Anti-TMV curative activity (treatment mode), live friction inoculation on tobacco seedlings; type: in vivo; details: Tobacco mosaic virus, read-out: Anti-TMV activity, Curative effect (inhibition), 100 μg/mL, tobacco seedlings, checked on seventh day
[2] = system: tobacco mosaic virus (TMV); test: Anti-TMV inactivation activity (inactivation mode), compound mixed with TMV before inoculation of tobacco leaves; type: in vivo; details: Tobacco mosaic virus, read-out: Anti-TMV activity, Inactivation effect (inhibition)
[3] = system: tobacco mosaic virus (TMV); test: Anti-TMV protective activity (protection mode), live friction inoculation on tobacco seedlings; type: in vivo; details: Tobacco mosaic virus, read-out: Anti-TMV activity, Protection effect (inhibition)
[4] = system: tobacco mosaic virus (TMV); test: Anti-TMV inducing activity (induction mode), tobacco seedlings; type: in vivo; details: Tobacco mosaic virus, read-out: Anti-TMV activity, Induction effect (inhibition), 100 μg/mL, tobacco seedlings
[5] = system: Alternaria solani; test: Fungicidal activity, fungi growth rate method, AS; type: cell-based; details: Alternaria solani, 50 μg/mL
[6] = system: Botrytis cinerea; test: Fungicidal activity, fungi growth rate method, BC; type: cell-based; details: Botrytis cinerea, 50 μg/mL
[7] = system: Cercospora arachidicola; test: Fungicidal activity, fungi growth rate method, CA; type: cell-based; details: Mycosphaerella arachidis, 50 μg/mL
[8] = system: wheat Gibberella zeae; test: microbe, parasite or virus in culture; type: cell-based; details: Fusarium graminearum
[9] = system: Phytophthora infestans (Mont) de Bary; test: microbe, parasite or virus in culture; type: cell-based; details: Phytophthora infestans
[10] = system: Physalospora piricola; test: Fungicidal activity, fungi growth rate method, PP; type: cell-based; details: 50 μg/mL
[11] = system: Pellicularia sasakii; test: Fungicidal activity, fungi growth rate method, PS; type: cell-based; details: 50 μg/mL
[12] = system: Rhizoctonia cerealis; test: Fungicidal activity, fungi growth rate method, RC; type: cell-based; details: Ceratobasidium cereale, 50 μg/mL
[13] = system: Sclerotinia sclerotiorum; test: microbe, parasite or virus in culture; type: cell-based; details: Sclerotinia sclerotiorum; for inhibition at 50 µg/mL: 50 μg/mL; for EC90: read-out: EC90 against S. sclerotiorum in vitro
[14] = read-out: Fungicidal activity, inhibition, AS
[15] = read-out: Fungicidal activity, inhibition, BC
[16] = read-out: Fungicidal activity, inhibition, CA
[17] = read-out: Fungicidal activity, inhibition, GZ
[18] = read-out: Fungicidal activity, inhibition, PI
[19] = read-out: Fungicidal activity, inhibition, PP
[20] = read-out: Fungicidal activity, inhibition, PS
[21] = read-out: Fungicidal activity, inhibition, RC
[22] = read-out: Fungicidal activity (inhibition) against SS: Sclerotinia sclerotiorum
[23] = read-out: Fungicidal activity, inhibition, SS
[24] = read-out: Fungicidal activity (inhibition) against GZ: wheat Gibberella zeae
[25] = read-out: Fungicidal activity (inhibition) against AS: Alternaria solani
[26] = read-out: Fungicidal activity (inhibition) against BC: Botrytis cinerea
[27] = read-out: Fungicidal activity (inhibition) against CA: Cercospora arachidicola
[28] = read-out: Fungicidal activity (inhibition) against PI: Phytophthora infestans (Mont) de Bary
[29] = read-out: Fungicidal activity (inhibition) against PP: Physalospora piricola
[30] = read-out: Fungicidal activity (inhibition) against PS: Pellicularia sasakii

Row | SMILES | inhibition at 100 µg/mL [1] [%] | inhibition at 100 µg/mL [2] [%] | inhibition at 100 µg/mL [3] [%] | inhibition at 100 µg/mL [4] [%] | inhibition at 50 µg/mL [5, 14] [%] | inhibition at 50 µg/mL [6, 15] [%] | inhibition at 50 µg/mL [7, 16] [%] | inhibition at 50 µg/mL [8, 17] [%] | inhibition at 50 µg/mL [9, 18] [%] | inhibition at 50 µg/mL [10, 19] [%] | inhibition at 50 µg/mL [11, 20] [%] | inhibition at 50 µg/mL [12, 21] [%] | inhibition at 50 µg/mL [13, 23] [%] | melting point [°C] | also measured
1 | CC(C)(C)OC(=O)N1CCC(c2nc(/C=C3\N=C(c4ccccc4)OC3=O)cs2)CC1 [Compound 73] | 0 | 59 | 11 | 8 | 36 | 10 | 16 | 23 | 24 | 19 | 20 | 24 | 89 | 189 to 191 | inhibition at 50 µg/mL [13, 22]: 80 to 95%
2 | Cc1nnsc1/C=C(\NC(=O)c1ccccc1)C(=O)O [Compound 71, (Z)-2-benzoylamino-3-[5-(4-methyl-1,2,3-thiadiazol)]propenoic acid] | 0 | 67 | 53 | 27 | 14 | 12 | 24 | 86 | 21 | 6 | 9 | 18 | 47 | 215 to 217 | inhibition at 50 µg/mL [8, 24]: 86%
3 | O=C(N/C(=C\c1ccccc1)C(=O)N1CCC(O)(c2ccc(Br)cc2)CC1)c1ccco1 [Compound 13, (Z)-N-[1-[[4-(4-bromophenyl)-4-hydroxy-1-piperidinyl]carbonyl]-2-phenylethenyl]-2-furamide] | 47 | 69 | 26 | 30 | 15 | 24 | 16 | 33 | 27 | 16 | 21 | 22 | 95 | 138 to 140 | EC90 [13]: 195 µg/mL (≈ 394 µM)
4 | O=C(NC(Cc1ccccc1)C(=O)N1CCC(c2ccccc2)CC1)c1ccccc1 (stereo not shown) [Compound 48, N-[1-[[4-(4-phenyl)-1-piperidinyl]carbonyl]-2-phenylethyl]benzamide] | 25 | 32 | 2 | 27 | 18 | 17 | 9 | 11 | 23 | 14 | 17 | 11 | 64 | 143 to 144 | 
5 | COC(=O)[C@H](C)NC(=O)/C(=C/c1ccccc1)NC(=O)c1ccccc1 [Compound 34, (S,Z)-N-[1-[[1-(2-methyl propanoate)amino]carbonyl]-2-phenylethenyl]benzamide] | 0 | 0 | 0 | 50 | 21 | 24 | 16 | 16 | 5 | 0 | 0 | 3 | 56 | 147 to 148 | 
6 | CNC(=O)/C(=C/c1ccccc1)NC(=O)c1ccccc1 [Compound 32, (Z)-N-[1-[(methylamino)carbonyl]-2-phenylethenyl]benzamide] | 0 | 25 | 58 | 10 | 5 | 11 | 16 | 6 | 16 | 12 | 13 | 4 | 80 | 185 to 187 | inhibition at 50 µg/mL [5, 25]: < 30%; inhibition at 50 µg/mL [6, 26]: ≤ 20%; inhibition at 50 µg/mL [7, 27]: < 25%; inhibition at 50 µg/mL [8, 24]: < 45%; inhibition at 50 µg/mL [9, 28]: < 25%; inhibition at 50 µg/mL [10, 29]: < 20%; inhibition at 50 µg/mL [11, 30]: < 30%; inhibition at 50 µg/mL ([12]; read-out: Fungicidal activity (inhibition) against RC: Rhizoctonia cerealis): < 20%; inhibition at 50 µg/mL [13, 22]: 80%
7 | CONC(=O)/C(=C/c1ccccc1)NC(=O)c1ccccc1 [Compound 33, (Z)-N-[1-[(methoxylamino)carbonyl]-2-phenylethenyl]benzamide] | 3 | 0 | 1 | 45 | 21 | 22 | 13 | 0 | 8 | 3 | 5 | 10 | 17 | 166 to 168 | 
8 | O=C(N/C(=C\c1ccccc1)C(=O)N1CCC(O)(c2ccc(Br)cc2)CC1)c1ccc(F)cc1 [Compound 6, (Z)-N-[1-[[4-(4-bromophenyl)-4-hydroxy-1-piperidinyl]carbonyl]-2-phenylethenyl]-4-fluorobenzamide] | 15 | 50 | 45 | 6 | 31 | 48 | 49 | 44 | 50 | 49 | 54 | 51 | 96 | 129 to 130 | inhibition at 50 µg/mL [6, 26]: 48%; inhibition at 50 µg/mL [7, 27]: 49%; inhibition at 50 µg/mL [9, 28]: 50%; inhibition at 50 µg/mL [10, 29]: 49%; inhibition at 50 µg/mL [11, 30]: 54%; EC90 [13]: 218 µg/mL (≈ 416 µM)
9 | CC(C)(C)OC(=O)N1CCC(c2nc(/C=C(\NC(=O)c3ccccc3)C(=O)N3CCC(O)(c4ccc(Br)cc4)CC3)cs2)CC1 [Compound 29, (Z)-N-[1-[[4-(4-bromophenyl)-4-hydroxy-1-piperidinyl]carbonyl]-2-[4-[2-[4-(1-Boc-piperidine)]thiazol]]ethenyl]benzamide] | 36 | 0 | 0 | 2 | 6 | 7 | 13 | 3 | 14 | 0 | 11 | 10 | 67 | 166 to 168 | 
10 | O=C(N/C(=C\c1ccc(Cl)cc1)C(=O)N1CCC(O)(c2ccc(Br)cc2)CC1)c1ccccc1 [Compound 18, (Z)-N-[1-[[4-(4-bromophenyl)-4-hydroxy-1-piperidinyl]carbonyl]-2-(4-chlorophenyl)ethenyl]benzamide] | 0 | 27 | 39 | 34 | 43 | 34 | 30 | 49 | 31 | 27 | 29 | 29 | 93 | 210 to 212 | inhibition at 50 µg/mL [5, 25]: 43%; EC90 [13]: 381 µg/mL (≈ 706 µM)
11 | O=C(NCc1ccc(F)cc1)/C(=C/c1ccccc1)NC(=O)c1ccccc1 [Compound 55, N-[(1Z)-2-phenyl-1-[[(4-fluorophenylmethyl)amino]carbonyl]ethenyl]benzamide] | 45 | 59 | 0 | 4 | 28 | 12 | 10 | 34 | 19 | 21 | 12 | 12 | 75 | 199 to 201 | inhibition at 50 µg/mL [13, 22]: 60 to 80%
